Measured values as given in ChEMBL document CHEMBL5241122, “A concise review on marine bromopyrrole alkaloids as anticancer agents” (Bioorg Med Chem Lett, 2023).
pEC50, pIC50: −log10 of the molar value.

Columns and labels:
WRL68 = assay: Cytotoxicity against human WRL68 cells by MTT assay; assay type: functional, cell-based
Caco-2 = assay: Cytotoxicity against human Caco-2 cells by MTT assay; assay type: functional, cell-based
MCF7 = assay: Cytotoxicity against human MCF7 cells by MTT assay; assay type: functional, cell-based
[1] = biological target: E3 ubiquitin-protein ligase CBL-B (Homo sapiens, UniProt Q13191); assay: Inhibition of Cbl-b (unknown origin) assessed as inhibition of Cbl-b dependent ubiquitination in presence of ATP measured after 13 hrs by fluorescence microplate reader assay
[2] = biological target: Cyclin-dependent kinase 4 (Homo sapiens, UniProt P11802); assay: Inhibition of CDK4 (unknown origin)
KB = assay: Cytotoxicity against human KB cells; assay type: functional, cell-based
L1210 = assay: Cytotoxicity against mouse L1210 cells; assay type: functional, cell-based
[3] = biological target: Receptor tyrosine-protein kinase erbB-2 (Homo sapiens, UniProt P04626); assay: Inhibition of c-ErbB-2 (unknown origin)
PC-9 = assay: Cytotoxicity against human PC-9 cells incubated for 48 hrs by MTT assay; assay type: functional, cell-based; conditions: PC-9, 48 h
U-937 = assay: Cytotoxicity against human U-937 cells incubated for 48 hrs by MTT assay; assay type: functional, cell-based; conditions: U-937, 48 h
[4] = Displacement of [125I]-somatostatin from somatostatin (unknown origin) incubated for 60 mins by gamma scintillation counter analysis; parameters: species or system Homo sapiens
VIP peptides = VIP peptides (Homo sapiens, UniProt P01282); assay: Displacement of [125I]-VIP from Vasoactive intestinal peptide (unknown origin) incubated for 120 mins by gamma scintillation counter analysis
SF-295 = assay: Inhibition of cell growth in human SF-295 cells by SRB assay; assay type: functional; conditions: read-out: ED50 (the source's name)
NCI-H460 = assay: Inhibition of cell growth in human NCI-H460 cells by SRB assay; assay type: functional; conditions: read-out: ED50 (the source's name)
A498 = assay: Inhibition of cell growth in human A498 cells by SRB assay; assay type: functional; conditions: read-out: ED50 (the source's name)
KM-20L2 = assay: Inhibition of cell growth in human KM-20L2 cells by SRB assay; assay type: functional; conditions: read-out: ED50 (the source's name)
SK-MEL-5 = assay: Inhibition of cell growth in human SK-MEL-5 cells by SRB assay; assay type: functional; conditions: read-out: ED50 (the source's name)
OVCAR-3 = assay: Inhibition of cell growth in human OVCAR-3 cells by SRB assay; assay type: functional; conditions: read-out: ED50 (the source's name)
K562 = assay: Cytotoxicity against human K562 cells by MTT assay; assay type: functional, cell-based
L02 = assay: Cytotoxicity against human L02 cells by MTT assay; assay type: functional, cell-based
SW-620 = assay: Cytotoxicity against human SW620 cells assessed as cell growth inhibition; assay type: functional, cell-based
KB 3-1 = assay: Cytotoxicity against human KB-3-1 cells assessed as cell growth inhibition; assay type: functional, cell-based
[5] = Inhibition of CK1gamma (unknown origin); parameters: species or system Homo sapiens
[6] = biological target: Cyclin-dependent kinase 5/CDK5 activator 1 (Homo sapiens, UniProt Q00535); assay: Inhibition of CDK5/p25 (unknown origin); assay type: protein-complex assay
Jurkat = assay: Antiinflammatory activity in PMA induced human Jurkat cells assessed as inhibition of IL-2 production by EIA assay; assay type: functional, cell-based
A549 = assay: Cytotoxicity against human A549 cells assessed as cell growth inhibition by cell based assay; assay type: functional
PSN1 = assay: Cytotoxicity against human PSN1 cells assessed as cell growth inhibition by cell based assay; assay type: functional
MDA-MB-231 = assay: Cytotoxicity against human MDA-MB-231 cells assessed as cell growth inhibition by cell based assay; assay type: functional
HT-29 = assay: Cytotoxicity against human HT-29 cells assessed as cell growth inhibition by cell based assay; assay type: functional
P388 = assay: Cytotoxicity against mouse P388 cells; assay type: functional, cell-based
LoVo = assay: Inhibition of cell growth in human LoVo cells by SRB assay; assay type: functional, cell-based
[7] = Inhibition of recombinant human MAPK expressed in Escherichia coli assessed as reduction in MEK-1 phosphorylation incubated for 60 mins by ELISA assay

E3 ubiquitin-protein ligase CBL-B, sequence (Q13191 whole entry): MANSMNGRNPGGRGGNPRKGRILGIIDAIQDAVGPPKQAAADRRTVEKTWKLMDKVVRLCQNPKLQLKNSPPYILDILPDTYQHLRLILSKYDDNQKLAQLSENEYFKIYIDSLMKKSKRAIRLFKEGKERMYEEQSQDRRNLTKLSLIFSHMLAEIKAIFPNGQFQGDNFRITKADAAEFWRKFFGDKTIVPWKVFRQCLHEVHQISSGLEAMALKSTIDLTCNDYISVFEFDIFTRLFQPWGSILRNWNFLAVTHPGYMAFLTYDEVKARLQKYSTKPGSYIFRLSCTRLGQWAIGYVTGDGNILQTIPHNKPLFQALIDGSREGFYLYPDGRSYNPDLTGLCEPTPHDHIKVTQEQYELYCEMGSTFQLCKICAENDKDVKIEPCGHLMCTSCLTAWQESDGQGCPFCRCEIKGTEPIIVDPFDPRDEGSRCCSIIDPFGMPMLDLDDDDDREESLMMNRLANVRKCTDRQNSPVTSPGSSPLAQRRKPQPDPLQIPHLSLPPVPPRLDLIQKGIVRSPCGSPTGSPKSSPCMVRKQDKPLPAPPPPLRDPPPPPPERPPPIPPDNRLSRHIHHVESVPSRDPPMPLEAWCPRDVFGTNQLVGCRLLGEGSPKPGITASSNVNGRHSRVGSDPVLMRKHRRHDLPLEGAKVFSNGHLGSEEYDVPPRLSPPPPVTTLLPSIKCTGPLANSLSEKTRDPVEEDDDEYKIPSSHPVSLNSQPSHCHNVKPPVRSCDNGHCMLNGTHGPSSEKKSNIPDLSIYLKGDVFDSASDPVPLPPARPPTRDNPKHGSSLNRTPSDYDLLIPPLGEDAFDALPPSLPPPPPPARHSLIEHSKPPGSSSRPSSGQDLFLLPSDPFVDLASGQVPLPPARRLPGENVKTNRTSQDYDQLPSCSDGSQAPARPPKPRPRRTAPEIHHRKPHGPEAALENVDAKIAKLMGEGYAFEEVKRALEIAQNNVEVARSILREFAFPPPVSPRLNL
Cyclin-dependent kinase 4, sequence (P11802 whole entry): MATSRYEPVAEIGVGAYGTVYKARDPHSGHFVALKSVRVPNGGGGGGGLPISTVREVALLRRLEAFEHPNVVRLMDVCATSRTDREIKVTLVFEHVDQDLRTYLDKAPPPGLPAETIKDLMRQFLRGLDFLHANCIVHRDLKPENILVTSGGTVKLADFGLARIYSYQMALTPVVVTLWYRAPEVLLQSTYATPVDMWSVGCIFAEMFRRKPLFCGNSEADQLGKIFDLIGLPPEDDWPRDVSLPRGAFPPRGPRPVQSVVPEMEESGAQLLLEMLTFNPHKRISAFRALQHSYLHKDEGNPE
Receptor tyrosine-protein kinase erbB-2, sequence (P04626 whole entry): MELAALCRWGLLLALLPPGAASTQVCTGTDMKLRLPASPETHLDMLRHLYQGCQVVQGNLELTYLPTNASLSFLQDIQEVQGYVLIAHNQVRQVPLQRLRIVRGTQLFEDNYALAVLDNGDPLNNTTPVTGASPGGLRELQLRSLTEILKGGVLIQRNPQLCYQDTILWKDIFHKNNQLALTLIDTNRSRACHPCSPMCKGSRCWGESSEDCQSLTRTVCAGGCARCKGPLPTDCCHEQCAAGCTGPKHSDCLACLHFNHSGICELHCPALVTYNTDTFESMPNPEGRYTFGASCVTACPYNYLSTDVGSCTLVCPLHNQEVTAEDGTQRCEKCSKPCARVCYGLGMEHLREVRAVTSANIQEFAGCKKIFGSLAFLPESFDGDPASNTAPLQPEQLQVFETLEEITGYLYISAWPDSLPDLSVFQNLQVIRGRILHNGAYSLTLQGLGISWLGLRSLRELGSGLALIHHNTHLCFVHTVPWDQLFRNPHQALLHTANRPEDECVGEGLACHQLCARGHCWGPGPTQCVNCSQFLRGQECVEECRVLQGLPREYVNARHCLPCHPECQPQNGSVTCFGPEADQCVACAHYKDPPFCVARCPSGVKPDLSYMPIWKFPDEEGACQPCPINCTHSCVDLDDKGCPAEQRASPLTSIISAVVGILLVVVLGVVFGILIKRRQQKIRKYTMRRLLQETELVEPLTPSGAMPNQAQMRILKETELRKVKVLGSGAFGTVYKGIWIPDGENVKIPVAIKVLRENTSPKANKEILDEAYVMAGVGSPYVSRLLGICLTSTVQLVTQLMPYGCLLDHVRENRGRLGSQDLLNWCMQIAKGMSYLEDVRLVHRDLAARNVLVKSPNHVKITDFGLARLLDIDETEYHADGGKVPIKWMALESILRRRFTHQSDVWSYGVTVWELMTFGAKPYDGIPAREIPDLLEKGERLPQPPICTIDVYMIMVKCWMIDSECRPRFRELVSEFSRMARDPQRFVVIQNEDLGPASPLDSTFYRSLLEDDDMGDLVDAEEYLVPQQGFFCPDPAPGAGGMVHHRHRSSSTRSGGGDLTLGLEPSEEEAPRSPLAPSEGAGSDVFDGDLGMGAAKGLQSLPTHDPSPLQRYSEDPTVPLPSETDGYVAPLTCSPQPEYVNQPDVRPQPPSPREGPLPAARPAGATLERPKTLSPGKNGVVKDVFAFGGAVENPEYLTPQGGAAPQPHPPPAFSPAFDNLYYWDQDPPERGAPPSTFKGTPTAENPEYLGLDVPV
VIP peptides, sequence (P01282 125-152 limits assumed): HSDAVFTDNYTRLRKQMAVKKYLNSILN
Cyclin-dependent kinase 5/CDK5 activator 1, sequence (Q00535 whole entry): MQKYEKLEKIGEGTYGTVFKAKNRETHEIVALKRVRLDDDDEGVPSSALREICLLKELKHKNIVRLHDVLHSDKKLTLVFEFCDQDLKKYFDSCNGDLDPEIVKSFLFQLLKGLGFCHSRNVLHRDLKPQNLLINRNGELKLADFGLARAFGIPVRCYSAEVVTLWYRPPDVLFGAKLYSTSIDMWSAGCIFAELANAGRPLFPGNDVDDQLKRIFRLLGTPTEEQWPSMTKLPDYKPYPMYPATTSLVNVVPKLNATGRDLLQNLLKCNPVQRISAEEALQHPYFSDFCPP
Cyclin-dependent kinase 5/CDK5 activator 1, sequence (Q15078 whole entry, further chain): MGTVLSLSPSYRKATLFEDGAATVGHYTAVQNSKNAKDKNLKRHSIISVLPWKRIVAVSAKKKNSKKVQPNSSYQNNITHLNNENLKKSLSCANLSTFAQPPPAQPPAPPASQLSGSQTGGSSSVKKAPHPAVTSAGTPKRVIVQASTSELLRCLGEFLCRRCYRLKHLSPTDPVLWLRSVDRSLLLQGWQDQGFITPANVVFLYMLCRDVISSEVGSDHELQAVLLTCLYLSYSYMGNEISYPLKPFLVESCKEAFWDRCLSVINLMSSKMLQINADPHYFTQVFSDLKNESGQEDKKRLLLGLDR

Compound: COc1cc(NC(=S)NNC(=O)c2cc(Br)c(Br)n2C)cc(OC)c1OC
- pIC50 (WRL68): 7.52
- pIC50 (Caco-2): 7.52
- pIC50 (MCF7): 7.52

Compound: Cn1cc(Br)cc1C(=O)NC[C@@H]1[C@@H](CNC(=O)c2ccc(Br)[nH]2)CC2N=C(N)NC2[C@H]1c1c[nH]c(N)n1 (stereo partly drawn)
- pIC50 [1]: 4.74

Compound: NC1NC[C@H](O)[C@@]2(N1)[C@H]1[C@H](CN3C(=O)c4cc(Br)cn4[C@H]4NC(N)N[C@@]413)[C@H](CNC(=O)c1cc(Br)c(Br)[nH]1)[C@@H]2Cl (stereo partly drawn)
- pIC50 [2]: 4.58
- pIC50 (KB): 4.57
- pIC50 (L1210): 4.57

Compound: N=C1N=C(NCCS(=O)(=O)O)/C(=C/C(O)CNC(=O)c2cc(Br)c[nH]2)N1 (mixture of isomers)
- pIC50 [3]: 4.42

Compound: Cn1cccc1C(=O)NC[C@H]1CC2N=C(N)NC2[C@@H](c2c[nH]c(N)n2)[C@@H]1CNC(=O)c1cc(Br)c(Br)n1C (stereo partly drawn)
- pIC50 [1]: 4.74

Compound: Cn1cc(Br)cc1C(=O)NC[C@H]1CC2N=C(N)NC2[C@@H](c2c[nH]c(N)n2)[C@@H]1CNC(=O)c1cc(Br)c(Br)[nH]1 (stereo partly drawn)
- pIC50 [1]: 4.74

Compound: COc1cccc2c1C(=O)c1c(O)c3c(c(O)c1C2=O)C[C@@](O)(C(=O)CO)C[C@@H]3O[C@H]1C[C@H](N)[C@H](O)[C@H](C)O1 [DOXORUBICIN]
- pIC50 (PC-9): 6.66
- pIC50 (U-937): 7.30

Compound: Nc1nc([C@H]2[C@H](CNC(=O)c3cc(Br)c[nH]3)[C@@H](CNC(=O)c3cc(Br)c[nH]3)[C@@H]2c2c[nH]c(N)n2)c[nH]1 [SCEPTRIN]
- pIC50 [4]: 6.57
- pIC50 (VIP peptides): 4.70

Compound: O=C1NC2n3c(cc(Br)c3Br)C(=O)N3CCCC23N1 (stereo not drawn)
- pEC50 (SF-295): 5.41
- pEC50 (NCI-H460): 5.80
- pEC50 (A498): 6.28
- pEC50 (KM-20L2): 6.55
- pEC50 (SK-MEL-5): 6.55
- pEC50 (OVCAR-3): 5.93

Compound: O=C1NC(=O)/C(=C/CCNC(=O)c2[nH]cc(Br)c2Br)N1
- pIC50 (K562): 5.21
- pIC50 (L02): 4.91

Compound: Cn1c(C(=O)NC[C@H]2CC3N=C(N)NC3[C@@H](c3c[nH]c(N)n3)[C@@H]2CNC(=O)c2cc(Br)c[nH]2)cc(Br)c1Br (stereo partly drawn)
- pIC50 [1]: 4.74

Compound: CO[C@@]12C[C@@H](CNC(=O)c3cc(Br)c[nH]3)O[C@@H]1NC(=O)N2
- pIC50 (L1210): 4.68

Compound: O=C(NNC(=S)Nc1ccc(Cl)cc1)c1cc(Br)c(Br)[nH]1
- pIC50 (WRL68): 7.52
- pIC50 (Caco-2): 7.52
- pIC50 (MCF7): 7.52

Compound: N=C1NC(=O)C(=C2CCNC(=O)c3[nH]c(Br)cc32)N1
- pIC50 (SW-620): 5.51
- pIC50 (KB 3-1): 5.70
- pIC50 [5]: 7.52
- pIC50 [6]: 6.80

Compound: N=C1NC(=O)/C(=C2/CCNC(=O)c3[nH]cc(Br)c32)N1
- pIC50 [2]: 4.53
- pIC50 [3]: 4.73

Compound: NC1=NC(=O)/C(=C2\CCNC(=O)c3[nH]c4ccccc4c32)N1
- pIC50 (Jurkat): 5.46

Compound: CN1C(=O)C[C@H](C(N)=O)NC(=O)C(O)CNC(=O)[C@H](CNC(=O)c2cc(Br)c(Br)[nH]2)NC(=O)[C@H](CN)NC(=O)C1Cc1cnc(Cl)[nH]1 (stereo partly drawn)
- GI50 (A549): > 12 µM
- GI50 (PSN1): > 12 µM
- GI50 (MDA-MB-231): > 12 µM
- GI50 (HT-29): > 12 µM

Compound: N=C1NC(=O)/C(=C2/CCNC(=O)c3[nH]c(Br)c(Br)c32)N1
- pIC50 [2]: 4.01
- pIC50 [3]: 4.68

Compound: NC1=N[C@@]23CCCN2C(=O)c2c([nH]c(Br)c2Br)[C@H]3N1
- pIC50 (P388): 4.69

Compound: NC1=N/C(=C2\CCNC(=O)c3[nH]c(Br)cc32)C(=O)N1
- pIC50 (LoVo): 8.52
- pIC50 [7]: 8.52
